Results reported in patent publication US20180055020A1, “Mice With Transgene Of iBox Peptide Inhibitor Of Group B p21-Activated Kinases” (Institute For Cancer Research d/b/a The Research Institute …, priority 2016, published 2018).

How the values were obtained:
Type in all cases: cell-based, mouse
[1] = system: Src; assay: Immunoblot of lysates of ROSA26-iBox MEFs for signaling molecules (Src and P-Src); conditions: lysates of MEFs expressing iBox (Adeno-Cre), FIG. 5D
Experimental: (§1) Primary mouse embryo fibroblasts were established from E14 embryos from pregnant ROSA26-iBox mice. Cell lines were maintained in DMEM medium supplemented with 10% of FBS, 2 mM L-glutamine and 100 Um′ penicillin/streptomycin ay 37° C. in a humidified 5% CO2 incubator. To document iBox and EGFP expression, the MEFs were transduced with Adeno-Cre which removes the LSL cassette. MEFs were imaged to documents EGFP expression and lysates were probed by immunoblot to document iBox expression using anti-GST antibodies that recognize the GST protein that is fused to the N-terminus of iBox. These lysates were also probed with antibodies against Erk and P-Erk, Src and P-Src, Fak and P-Fak, as well as GAPDH.
(§2) To analyze endogenous Pak4 activity, Pak4 was immunoprecipitated from ROSA26-iBox MEFs and Protein-A-Pak4 beads were incubated with recombinant Pacsin or CRTC1 for 10 minutes at 30° C. in a buffer containing 50 mM Tris-HCl, pH 7.5, 10 mM MgCl2, 1 mM DTT, and 50 μM ATP. Reactions were terminated with hot 6×SDS/PAGE buffer and the samples were analyzed by immunoblot using anti-P-pacsin or anti-P-CRTC1 antibodies. […] Inhibition of Erk, Src, and Fak was observed.

[2] = system: Fak; assay: Immunoblot of lysates of ROSA26-iBox MEFs for signaling molecules (Fak and P-Fak); conditions: lysates of MEFs expressing iBox (Adeno-Cre), FIG. 5D
Experimental: as §1, §2

[3] = system: each of the tissues studied; assay: Cell proliferation on expression of the iBox transgene (preliminary experiments)
Experimental: Cells were plated at 2×10^3 in 96-well plates and 10 μl of 3-[4,5-dimethylthiazol-2-yl]-2,5-diphenyl tetrazolium bromide (MTT) solution was added to each well to a final concentration of 0.5 mg/ml. The reaction was stopped after 4 hours at 37° C. by adding 100 μl of solubilization solution (10% SDS in 0.01M HCl) and the samples were analyzed at 595 nm on Perkin Elmer Envision plate reader. Triplicates were performed for each sample, and experiments were performed on three occasions. […] An anti-Gst blot is shown.

[4] = system: Erk; assay: Immunoblot of lysates of ROSA26-iBox MEFs for signaling molecules (Erk and P-Erk); conditions: lysates of MEFs expressing iBox (Adeno-Cre), FIG. 5D
Experimental: as §1, §2

Substance: iBox: Peptide inhibitor of Group B Paks, derived from amino acids 166 to 203 of human INKA-1, linked to GST, expressed from a transgene (GLEAEDWTAALLNRGRSRQPLVLGDNCFADLVHNWMEL; GST fusion; UniProt Q96EL1 166-203, looked up, fragment)
- effect on Src signaling (immunoblot) [1]: Inhibition
- effect on Fak signaling (immunoblot) [2]: Inhibition
- effect of iBox transgene expression on cell proliferation [3]: inhibited cell proliferation
- effect on Erk signaling (immunoblot) [4]: Inhibition
